We go through nine compounds from EP0163537A1, “1-Propanone derivatives and pharmaceutical compositions containing same” (priority 1984, dated 1985).

Counter-ions that a name gives are not always drawn. Like-named read-outs stand apart in the source and are kept apart here.

By LD50 is commonly meant the dose at which mortality reaches 50%. Higher therefore signals lower toxicity.

What all share (format): in vivo
In data set [1] the test system is Male mice of ddY strain. The data set can be described thus: Test 3 Muscle relaxant activity (traction test, method of Courvoisier et al.). The settings on record: 15 minutes after administration, groups of ten.
Method: Male mice of ddY strain, weighing 30 to 37 g, were used in groups of ten. The test compounds were dissolved in physiological saline and administered intraperitoneally in a dose of 50 or 75 mg/kg. […] This method involves a traction test in which the animal is hung by its forelimbs on a horizontal metal rod (2 mm in diameter) placed 20 cm above the floor and examined as to whether it can put its hindlimb on the rod or not.
Specifically, 15 minutes after administration of a test compound, the mouse was hung on the rod by its forelimbs. […] It had been confirmed in preliminary tests that, under normal conditions, all the mice could put their hindlimb on the rod within 5 seconds.
Data set [2] has as its system Male rats of Wistar strain. Kind of data set: Test 4 Effect on decerebrate rigidity induced by transection between superior and inferior colliculi. The protocol:
Male rats of Wistar strain, weighing 300 to 400 g, were used. The test compounds were dissolved in physiological saline and administered intravenously in doses of 10 mg/kg and 20 mg/kg.
Rigidity preparations were made according to the method of Fukuda et al. [The Japanese Journal of Pharmacology, 22, 457 (1972)]. Specifically, after a rat was fixed in a prone position under ether anesthesia, an incision was made in the head. The skull was removed around the occipital region to expose the brain. […] More than 2 hours after operation, the rat was mounted in a supine position on a fixing stand. Thus, the effect of the test compounds was evaluated by using the occurrence of rigidity in the antigravity muscles of the limbs as an index.

The subject of data set [3] is Male mice of ddY strain. Kind of data set: Test 2 Anti-tremorine activity (inhibition of tremorine-induced tremor). The settings on record: for responders at 50 mg/kg: Mus musculus, po, read-out: Inhibition of tremor (%).
Method: Male mice of ddY strain, weighing 28 to 32 g, were used in groups of eight or ten. The test compounds were dissolved in distilled water and administered orally in a dose of 50 mg/kg. After 30 minutes, tremorine dihydrochloride was subcutaneously administered in a dose of 20 mg/kg. Then, the occurrence of tremor was observed after the lapse of 30 and 60 minutes.
Data set [4] has as its system Male mice of ddY strain. The data set can be described thus: Test 1 Anti-nicotine activity (inhibition of nicotine-induced convulsive death). The settings on record: 200 mg/kg po, nicotine 2 mg/kg iv after 1 h, observed 1 h; for responders at 200 mg/kg: Mus musculus. The protocol:
Male mice of ddY strain, weighing 28 to 33 g, were used in groups of eight or twelve. The test compounds were dissolved in distilled water and administered orally in a dose of 200 mg/kg. After an hour, nicotine was intravenously administered in a dose of 2 mg/kg.

The test system of data set [5] is Male mice of ddY strain. Kind of data set: Test 5 Acute toxicity (LD50, method of Behrens and Kärbar). The following applies: Table-5a, observed for 7 days. The procedure:
(§1) Male mice of ddY strain, weighing 25 to 30 g, were used in groups of five. The test compounds were dissolved in distilled water and administered orally in various doses. […] Then, the LDso was calculated according to the method of Behrens and Kärbar.

Assay in data set [6]: as above
The settings on record: mouse, in vivo, mice, observed for 7 days. The procedure: as §1

Where [7] appears, read: Table-3a, 50 mg/kg po, After 30 min. from tremorine 20 mg/kg sc, 8 animals used.
[8] abbreviates: Table-3a, 50 mg/kg po, After 60 min. from tremorine 20 mg/kg sc, 8 animals used.
The mark [9] stands for this setting: 0.5 h, Table-3a, 50 mg/kg po, After 30 min. from tremorine 20 mg/kg sc, 8 animals used.
Where [10] appears, read: 1 h, Table-3a, 50 mg/kg po, After 60 min. from tremorine 20 mg/kg sc, 8 animals used.
[11] abbreviates: po, 1 h, Table-2a, 8 animals used.
The mark [12] stands for this setting: po, 1 h, Table-2b, 12 animals used.
Where [13] appears, read: 0.5 h, Table-3d, 50 mg/kg po, After 30 min., 10 animals used.
The mark [14] stands for this setting: 1 h, Table-3d, 50 mg/kg po, After 60 min., 10 animals used.
Where [15] appears, read: Table-3d, 50 mg/kg po, After 30 min., 10 animals used.
The mark [16] stands for this setting: Table-3d, 50 mg/kg po, After 60 min., 10 animals used.
The mark [17] stands for this setting: po, 1 h, Table-2c, 12 animals used.

On to “1-(4-Cyclopropylphenyl)-2-methyl-3-piperidino-1-propanone hydrochloride [Example 1]”, for which, in the data set on Male mice of ddY strain [1] (Table-4a, 50 mg/kg ip), the “Muscle relaxation rate (%)” value is given as 60% and the “Number of animals exhibiting muscle relaxation” value turned out to be 6. Moreover, in data set [2] (10 mg/kg intravenously), the “rigidity of the forelimbs and hindlimbs” value is “relaxed the rigidity of the forelimbs and hindlimbs to a significant degree”. Moreover, in the data set with Male mice of ddY strain [3] (setting [7]), the “Inhibition of tremor (%)” value was found to be 100% and the “Number of animals exhibiting no tremor” value is on record as 8. Also, in the data set with Male mice of ddY strain [3] (setting [8]), the “Inhibition of tremor (%)” value was determined as 87.5% and the “Number of animals exhibiting no tremor” value came to 7. In the data set on Male mice of ddY strain [4] (Table-2a, 8 animals used), the “Inhibition of death (%)” value was found to be 100.0% and the “Number of surviving animals” value turned out to be 8. Besides, the “Acute toxicity LD50 (mg/kg,po)” value in the data set with Male mice of ddY strain [5] came to 535 mg/kg.

For `CC(CN1CCCCCC1)C(=O)c1ccc(C2CC2)cc1.Cl` (stereo not drawn) [Example 9, 1-(4-Cyclopropylphenyl)-2-methyl-3-(hexahydro-1H-azepin-1-yl)-1-propanone hydrochloride], the “Number of animals exhibiting muscle relaxation” value in the data set on Male mice of ddY strain [1] (Table-4a, 50 mg/kg ip) turned out to be 7. The responders at 50 mg/kg with Male mice of ddY strain [3] (setting [9]) amounted to 100%; in the data set on Male mice of ddY strain [3] (setting [10]), 87.5%. Also, the responders at 200 mg/kg with Male mice of ddY strain [4] (setting [11]) is 75%. The “Number of surviving animals” value with Male mice of ddY strain [4] (Table-2a, 8 animals used) is reported as 6. For the same compound, the LD50 at 168 h in data set [6] (po, Table-5a) came out at 655 mg/kg.

Consider `CCC(CN1CCCCC1)C(=O)c1ccc2c(c1)OCO2.Cl` (stereo not drawn) [Example 53, 2-Ethyl-1-(3,4-methylenedioxyphenyl)-3-piperidino-1-propanone hydrochloride], for which the “rigidity of the forelimbs and hindlimbs” value in data set [2] (20 mg/kg intravenously) was “relaxed the rigidity similarly”. For the same compound, the responders at 200 mg/kg in the data set on Male mice of ddY strain [4] (setting [12]) was found to be 83.3%. Besides, the “Number of surviving animals” value with Male mice of ddY strain [4] (Table-2b, 12 animals used) worked out at 10. In addition, the LD50 at 168 h in data set [6] (po, Table-5b) is 565 mg/kg.

As for `CC(CN1CCCCC1)C(=O)c1ccc2c(c1)OCO2.Cl` (stereo not drawn) [Example 57, 2-Methyl-1-(3,4-methylenedioxyphenyl)-3-piperidino-1-propanone hydrochloride], the “rigidity of the forelimbs and hindlimbs” value in data set [2] (20 mg/kg intravenously) is “relaxed the rigidity similarly”. In addition, in the data set on Male mice of ddY strain [4] (Table-2b, 12 animals used), the responders at 200 mg/kg came out at 41.7% and the “Number of surviving animals” value was 5. In addition, the LD50 at 168 h in data set [6] (Table-5b, oral) amounted to 625 mg/kg.

`CCCC(CN1CCCCC1)C(=O)c1ccc2c(c1)OCO2` (stereo not drawn) [Example 66, 1-(3,4-Methylenedioxyphenyl)-2-n-propyl-3-piperi-dino-1-propanone hydrochloride]: the “rigidity of the forelimbs and hindlimbs” value in data set [2] (20 mg/kg intravenously) was “relaxed the rigidity similarly”. For the same compound, in the data set with Male mice of ddY strain [4] (Table-2b, 12 animals used), the responders at 200 mg/kg amounted to 58.3% and the “Number of surviving animals” value was found to be 7. Also, in data set [6] (Table-5b, oral), the 50% lethal dose (LD50) at 168 h stood at 625 mg/kg.

For `CC(CN1CCCCC1)C(=O)c1ccc2c(c1)CCO2.Cl` (stereo not drawn) [Example 85, 1-(2,3-Dihydro-5-benzofuranyl)-2-methyl-3-piperidino-1-propanone hydrochloride], the “Number of animals exhibiting muscle relaxation” value in the data set with Male mice of ddY strain [1] (Table-4d, 75 mg/kg ip) stood at 8. Besides, the “rigidity of the forelimbs and hindlimbs” value in data set [2] (20 mg/kg intravenously) is reported as “relaxed the rigidity similarly”. Besides, the responders at 50 mg/kg in the data set on Male mice of ddY strain [3] (setting [13]) and in the data set with Male mice of ddY strain [3] (setting [14]) was 100% in each case. Further, the “Number of animals exhibiting no tremor” value with Male mice of ddY strain [3] (setting [15]) and in the data set with Male mice of ddY strain [3] (setting [16]) was 10 in each case. For the same compound, in the data set with Male mice of ddY strain [4] (setting [17]), the responders at 200 mg/kg came out at 66.7%. Besides, the “Number of surviving animals” value with Male mice of ddY strain [4] (Table-2c, 12 animals used) is 8. Besides, in data set [6] (po, Table-5c), the LD50 at 168 h came out at 625 mg/kg.

With `CC(CN1CCCC1)C(=O)c1ccc2c(c1)CCO2.Cl` (stereo not drawn) [Example 92, 1-(2,3-Dihydro-5-benzofuranyl)-2-methyl-3-(1-pyrrolidinyl)-1-propanone hydrochloride], the “Number of animals exhibiting muscle relaxation” value with Male mice of ddY strain [1] (Table-4d, 75 mg/kg ip) is given as 6. Also, the “rigidity of the forelimbs and hindlimbs” value in data set [2] (20 mg/kg intravenously) is recorded as “relaxed the rigidity similarly”. Moreover, the responders at 50 mg/kg in the data set on Male mice of ddY strain [3] (0.5 h) and in the data set with Male mice of ddY strain [3] (1 h) was 100% in each case. Moreover, the “Number of animals exhibiting no tremor” value with Male mice of ddY strain [3] (setting [15]) and with Male mice of ddY strain [3] (setting [16]) was 10 in each case. Besides, in the data set on Male mice of ddY strain [4] (Table-2c, 12 animals used), the responders at 200 mg/kg was 75%. In the data set with Male mice of ddY strain [4] (Table-2c, 12 animals used), the “Number of surviving animals” value is given as 9. For the same compound, the LD50 at 168 h in data set [6] (Table-5c, oral) is 685 mg/kg.

Consider `CC(CN1CCCCCC1)C(=O)c1ccc2c(c1)CCO2.Cl` (stereo not drawn) [Example 93, 1-(2,3-Dihydro-5-benzofuranyl)-2-methyl-3-(hexahydro-1H-azepin-1-yl)-1-propanone hydrochloride], for which, in the data set on Male mice of ddY strain [1] (Table-4d, 75 mg/kg ip), the “Number of animals exhibiting muscle relaxation” value was found to be 6. In data set [2] (20 mg/kg intravenously), the “rigidity of the forelimbs and hindlimbs” value is “relaxed the rigidity similarly”. For the same compound, the responders at 50 mg/kg with Male mice of ddY strain [3] (setting [13]) and with Male mice of ddY strain [3] (setting [14]) was 100% throughout. Besides, the “Number of animals exhibiting no tremor” value in the data set on Male mice of ddY strain [3] (setting [15]) and in the data set on Male mice of ddY strain [3] (setting [16]) was 10 each time. The responders at 200 mg/kg in the data set with Male mice of ddY strain [4] (setting [17]) stood at 58.3%. The “Number of surviving animals” value in the data set on Male mice of ddY strain [4] (Table-2c, 12 animals used) came to 7. Also, in data set [6] (po, Table-5c), the LD50 at 168 h stood at 685 mg/kg.

In the case of `Cc1ccc(C(=O)C(C)CN2CCCCC2)cc1` (stereo not drawn) [Tolperisone HCl, 2-methyl-1-(4-methylphenyl)-3-(1-piperidinyl)-1-propanone, reference compound], the “Number of animals exhibiting muscle relaxation” value with Male mice of ddY strain [1] (Table-4a, 50 mg/kg ip) was determined as 1; in the data set on Male mice of ddY strain [1] (Table-4d, 75 mg/kg ip), 1. In addition, the responders at 50 mg/kg with Male mice of ddY strain [3] (setting [9]) turned out to be 0%; with Male mice of ddY strain [3] (0.5 h, Table-3b, 50 mg/kg po, After 30 min., 10 animals used), 0%; in the data set on Male mice of ddY strain [3] (setting [13]) it was 0%; with Male mice of ddY strain [3] (setting [10]), 0%; in the data set with Male mice of ddY strain [3] (1 h, Table-3b, 50 mg/kg po, After 60 min., 10 animals used), 0%; in the data set on Male mice of ddY strain [3] (setting [14]), 0%. Besides, the “Number of animals exhibiting no tremor” value is recorded as 0 in the data set on Male mice of ddY strain [3] (setting [7]); 0 in the data set on Male mice of ddY strain [3] (setting [8]); 0 with Male mice of ddY strain [3] (Table-3b, 50 mg/kg po, After 30 min., 10 animals used); 0 in the data set with Male mice of ddY strain [3] (Table-3b, 50 mg/kg po, After 60 min., 10 animals used); 0 with Male mice of ddY strain [3] (setting [15]); 0 with Male mice of ddY strain [3] (setting [16]). Also, the figures for the responders at 200 mg/kg in the data set with Male mice of ddY strain [4] (setting [11]), with Male mice of ddY strain [4] (setting [12]) and in the data set on Male mice of ddY strain [4] (setting [17]) were 0%, 0% and 8.3%, respectively. Also, the LD50 at 168 h in data set [6] (po, Table-5a) was found to be 625 mg/kg; in data set [6] (po, Table-5b), 655 mg/kg; in data set [6] (po, Table-5c), 595 mg/kg.
